# Experimental data from patent US10174033B2, “N6-substituted adenosine derivatives and N6-substituted adenine derivatives and uses thereof” (INSTITUTE OF MATERIA MEDICA, CHINESE ACADEMY OF MEDICAL …, priority 2009, dated 2019).
# Test system: male ICR-mice
# Assay: Potentiation of sodium pentobarbital sleeping time test
# Assay type: in vivo
# Conditions: intraperitoneal, 1 mg/kg, 38 mg/kg sodium pentobarbital 30 min later
# Protocol: Effects of N^6-substituted adenosine derivatives and/or N^6-substituted adenine derivatives on sodium pentobarbital-induced sleeping time in mice.
# Name of Experiment: Potentiation of sodium pentobarbital sleeping time test.
# Method of Experiment: Groups of 8-10 male ICR-mice with an average weight of 18-22 g were used. They were dosed orally or i.p. with the test compound or the vehicle. Thirty min after i.p. injection or 60 min after oral dosing 38 mg/kg sodium pentobarbital were injected intravenously. The latency and duration of sleep (loss of righting reflex) were recorded. The percentage of prolongation of sleeping time was calculated as: [(sleeping time of experimental group)−(sleeping time of control group)]/(sleeping time of control group)×100%.
row,Compound,Sleep prolonging rate (%)
1,OC[C@H]1O[C@@H](n2cnc3c(NCCc4ccc(O)c(O)c4)ncnc32)C(O)C1O (stereo partly drawn) [Example 38],98%

# Same assay, conditions: intraperitoneal, 5 mg/kg, 38 mg/kg sodium pentobarbital 30 min later
row,Compound,Sleep prolonging rate (%)
1,"Cc1ccc(CNc2ncnc3c2ncn3[C@@H]2O[C@H](CO)[C@@H](O)[C@H]2O)o1 [Example 18, N^6-(5-methyl-2-furanylmethyl)-adenosine]",7%
2,"O=C(O)[C@@H]1CCCN1c1ncnc2c1ncn2[C@@H]1O[C@H](CO)C(O)C1O (stereo partly drawn) [Example 118, N-(6-adenosine)-(L)-proline]",29%

# Same assay, conditions: oral, 5 mg/kg, 38 mg/kg sodium pentobarbital 60 min later
row,Compound,Sleep prolonging rate (%)
1,"CN(Cc1ccccc1)c1ncnc2c1ncn2[C@@H]1O[C@H](CO)[C@@H](O)[C@H]1O [Example 133, N^6-methyl-N^6-benzyl-adenosine]",27%
2,"CCCCCCCC(=O)OC[C@H]1O[C@@H](n2cnc3c(NCc4ccc(OC(=O)CCCCCCC)c(OC)c4)ncnc32)[C@H](O)[C@@H]1O [Example 26, N^6-(3-methoxy-4-octanoyloxybenzyl)-adenosine-5′-caprylate]",184%
3,"CC[C@@H](Nc1ncnc2c1ncn2[C@@H]1O[C@H](COC(C)=O)C(O)C1O)c1ccccc1 (stereo partly drawn) [Example 77, N^6-[(R)-1-(phenyl)-propyl]-adenosine-5′-acetate]",590%
4,"COc1cc(CNc2ncnc3c2ncn3[C@H]2C[C@@H](OC(C)=O)[C@@H](COC(C)=O)O2)ccc1O [Example 148, N^6-(3-methoxy-4-hydroxy-benzyl)-2′-deoxy-3′,5′-diacetyl adenosine]",71%
5,"C[C@@H](Nc1ncnc2[nH]cnc12)c1ccccc1 [Example 142, N^6-[(R)-1-(phenyl)-ethyl]-adenine]",21%
6,"CC[C@@H](Nc1ncnc2[nH]cnc12)c1ccccc1 [Example 144, N^6-[(R)-1-(phenyl)-propyl]-adenine]",42%
7,"OC[C@H]1O[C@@H](n2cnc3c(NC(c4ccccc4)C4CCCCC4)ncnc32)C(O)C1O (mixture of isomers) [Example 93, N^6-[(±)-1-(cyclohexylphenyl)-methyl]-adenosine]",17%
8,"OCCN(Cc1ccccc1)c1ncnc2c1ncn2[C@@H]1O[C@H](CO)[C@@H](O)[C@H]1O [Example 138, N^6-(2-hydroxyethyl)-N^6-benzyl-adenosine]",18%
9,"CCCCCCCC(=O)OC[C@H]1O[C@@H](n2cnc3c(NC(C)c4cc(OC)c(OC)c(OC)c4)ncnc32)[C@H](O)[C@@H]1O (mixture of isomers) [Example 53, N^6-[(±)-1-(3,4,5-trimethoxyphenyl)-ethyl]-adenosine-5′-caprylate]",130%
10,"CCCOC[C@H]1O[C@@H](n2cnc3c(N[C@H](CC)c4ccccc4)ncnc32)C(O)C1O (stereo partly drawn) [Example 86, N^6-[(R)-1-(phenyl)-propyl]-adenosine-5′-propyl ether]",318%
11,"CC(O)CN(CC(C)O)c1ncnc2c1ncn2[C@@H]1O[C@H](CO)[C@@H](O)[C@H]1O (stereo partly drawn) [Example 140, N^6,N^6-bis(2-hydroxypropyl)-adenosine]",5%
12,"CCCCCCCCCCCC(=O)OCC1OC(n2cnc3c(NCc4ccc(OC(=O)CCCCCCCCCCC)c(OC)c4)ncnc32)C2OC(C)(C)OC12 (stereo not drawn) [Example 25, N^6-(3-methoxy-4-lauroyloxybenzyl)-2′,3′-O-isopropylidene-adenosine-5′-laurate]",27%
13,"OC[C@H]1O[C@@H](n2cnc3c(N[C@@H](c4ccccc4)[C@H](O)c4ccccc4)ncnc32)C(O)C1O (stereo partly drawn) [Example 100, N^6-{(1R,2S)-[2-hydroxy-(1,2-diphenyl)]-ethyl}-adenosine]",38%
14,CCCC(=O)OC[C@H]1O[C@@H](n2cnc3c(NCc4ccc(OC(=O)CCC)c(OC)c4)ncnc32)[C@@H](O)C1O (stereo partly drawn) [N^6-(3-methoxy-4-butanoyloxy-benzyl)-adenosine-5′-butyrate],11%
15,"CC[C@H](C)[C@@H](CO)Nc1ncnc2c1ncn2[C@@H]1O[C@H](CO)C(O)C1O (stereo partly drawn) [Example 131, N^6-[(L)-2-(1-hydroxy-3-methyl)-pentyl]-adenosine]",36%
16,"COC(=O)[C@@H](Cc1ccccc1)Nc1ncnc2c1ncn2[C@@H]1O[C@H](CO)C(O)C1O (stereo partly drawn) [Example 105, N-(6-adenosine)-(D)-phenylalanine methyl ester]",2%
17,"CC[C@H](Nc1ncnc2c1ncn2[C@@H]1O[C@H](COC(=O)/C=C/c2ccc(C)cc2)C(O)C1O)c1ccccc1 (stereo in doubt) [Example 82, N^6-[(S)-1-(phenyl)-propyl]-adenosine-5′-p-methyl-cinnamate]",50%
18,"Cc1ccc([C@H](C)Nc2ncnc3c2ncn3[C@@H]2O[C@H](CO)[C@@H](O)[C@H]2O)cc1 [Example 60, N^6-[(S)-1-(4-methylphenyl)-ethyl]adenosine]",19%
19,OC[C@H]1O[C@@H](n2cnc3c(NCCc4ccc(O)c(O)c4)ncnc32)C(O)C1O (stereo partly drawn) [Example 38],69%
20,"CC(=O)OC[C@H]1O[C@@H](n2cnc3c(NCc4ccc(C)cc4)ncnc32)C[C@H]1OC(C)=O [Example 150, N^6-(p-methylbenzyl)-2′-deoxy-3′,5′-diacetyl adenosine]",9%
21,"Cc1ccc([C@@H](C)Nc2ncnc3c2ncn3[C@@H]2O[C@H](CO)[C@@H](O)[C@H]2O)cc1 [Example 59, N^6-[(R)-1-(4-methylphenyl)-ethyl]-adenosine]",99%
22,"CCCOC[C@H]1O[C@@H](n2cnc3c(NCc4ccc5c(c4)OCO5)ncnc32)C(O)C1O (stereo partly drawn) [Example 35, N^6-(3,4-methylenedioxybenzyl)-adenosine-5′-propyl ether]",36%
23,"CCCCCCCC(=O)OC[C@H]1O[C@@H](n2cnc3c(NCc4ccc5c(c4)OCO5)ncnc32)[C@H](O)[C@@H]1O [Example 32, N^6-(3,4-methylenedioxybenzyl)-adenosine-5′-caprylate]",26%
24,"COc1ccc([C@@H](C)Nc2ncnc3c2ncn3[C@@H]2O[C@H](CO)[C@@H](O)[C@H]2O)cc1 [Example 62, N^6-[(R)-1-(4-methoxyphenyl)-ethyl]-adenosine]",66%
25,"C[C@H]([C@H](O)c1ccccc1)N(C)c1ncnc2c1ncn2[C@@H]1O[C@H](CO)C(O)C1O (stereo partly drawn) [Example 136, N^6-methyl-N^6-[2-(1R,2R)-(1-hydroxy-1-phenyl)-propyl]-adenosine]",44%
26,"CCOC(=O)[C@@H](Cc1c[nH]c2ccccc12)Nc1ncnc2c1ncn2[C@@H]1O[C@H](CO)C(O)C1O (stereo partly drawn) [Example 114, N-(6-adenosine)-(D)-tryptophan ethyl ester]",16%
27,"OC[C@H]1O[C@@H](n2cnc3c(NC4CCCc5c(O)cccc54)ncnc32)[C@H](O)[C@@H]1O (mixture of isomers) [Example 97, N^6-[(±)-(5-hydroxy-1,2,3,4-tetrahydro-naphthalene-1-yl)]-adenosine]",39%
28,"CC[C@@H](Nc1ncnc2c1ncn2[C@@H]1O[C@H](COc2ccccc2[N+](=O)[O-])C(O)[C@@H]1O)c1ccccc1 (stereo partly drawn) [Example 85, N^6-[(R)-1-(phenyl)-propyl]-adenosine-5′-o-nitrophenyl ether]",87%
29,"OC[C@H]1O[C@@H](n2cnc3c(N[C@H](CO)[C@H](O)c4ccccc4)ncnc32)C(O)C1O (stereo partly drawn) [Example 42, N^6-[(1R,2R)-2-(1,3-dihydroxy-1-phenyl)-propyl]-adenosine]",4%
30,"N^6-[(R)-1-(phenyl)-propyl]-2′,3′-O-isopropylidene-adenosine-5′-acetate",18%
